From ChEMBL document CHEMBL5104192, “Late-Stage Functionalization with Cysteine Staples Generates Potent and Selective Melanocortin Receptor-1 Agonists” (J Med Chem, 2022)
*1 amine or outer side, *2 acyl side, *3 side chain or, on linkers, in order; H or OH if unused. Where a SMILES comes first, the peptide text is derived from it. Bridges are numbered along the chain shown (N, C = ends). [ ]: non-standard residue; d: D form. X6 = O=C(NCCOCCOCCNC(=O)c1ccc2c(c1)C(=O)OC21c2ccc(O)cc2Oc2cc(O)ccc21)OCC1C2CCc3c([*:1])nnc([*:2])c3CCC21; X5 = O=C(O)CCOCCOCCOCCOCCNC(=O)OCC1C2CCc3c([*:1])nnc([*:2])c3CCC21; X2 = NCCOCCOCCNC(=O)OCC1C2CCc3c([*:1])nnc([*:2])c3CCC21; X4 = C#CCCCCN1C(=O)C([*:1])=C([*:2])C1=O; X3 = NC(=O)/C(=C(\C(=O)O)[*:2])[*:1]; Nle = CCCC[C@H](N)C(=O)O; X7 = C(C[*:1])C[*:2]

Legend:
Melanocortin receptor 3 [1] = biological target: T1, Melanocortin receptor 3 (Homo sapiens, UniProt P41968); experiment: Agonist activity at human MC3R expressed in HEK2936E cells assessed as cAMP production in presence of IBMX by time resolved fluorescence assay; assay type: functional, cell-based
[2] = biological target: T2, Melanocyte-stimulating hormone receptor (Homo sapiens, UniProt Q01726); experiment: Displacement of [125I]-NDP-alpha-MSH from human MC1R expressed in HEK2936E cell membrane measured after 16 to 23 hrs by 1450 microbeta trilux scintillation proximity assay; assay type: cell membranes
Melanocortin receptor 4 [3] = biological target: T3, Melanocortin receptor 4 (Homo sapiens, UniProt P32245); experiment: Agonist activity at human MC4R expressed in HEK2936E cells assessed as cAMP production in presence of IBMX by time resolved fluorescence assay; assay type: functional, cell-based
Homo sapiens [4] = species: Homo sapiens; experiment: Selectivity ratio of EC50 for human MC3R to EC50 for human MC1R
Homo sapiens [5] = species: Homo sapiens; experiment: Selectivity ratio of Ki for human MC4R to Ki for human MC1R
[6] = biological target: T2, Melanocyte-stimulating hormone receptor; experiment: Agonist activity at human MC1R expressed in HEK2936E cells assessed as cAMP production in presence of IBMX by time resolved fluorescence assay; assay type: functional, cell-based
Melanocortin receptor 4 [7] = biological target: T3, Melanocortin receptor 4; experiment: Displacement of [125I]-NDP-alpha-MSH from human MC4R expressed in HEK2936E cell membrane measured after 16 to 23 hrs by 1450 microbeta trilux scintillation proximity assay; assay type: cell membranes
Homo sapiens [8] = species: Homo sapiens; experiment: Selectivity ratio of Ki for human MC3R to Ki for human MC1R
Homo sapiens [9] = species: Homo sapiens; experiment: Selectivity ratio of EC50 for human MC4R to EC50 for human MC1R
Melanocortin receptor 3 [10] = biological target: T1, Melanocortin receptor 3; experiment: Displacement of [125I]-NDP-alpha-MSH from human MC3R expressed in HEK2936E cell membrane measured after 16 to 23 hrs by 1450 microbeta trilux scintillation proximity assay; assay type: cell membranes

T1 sequence (P41968 whole entry): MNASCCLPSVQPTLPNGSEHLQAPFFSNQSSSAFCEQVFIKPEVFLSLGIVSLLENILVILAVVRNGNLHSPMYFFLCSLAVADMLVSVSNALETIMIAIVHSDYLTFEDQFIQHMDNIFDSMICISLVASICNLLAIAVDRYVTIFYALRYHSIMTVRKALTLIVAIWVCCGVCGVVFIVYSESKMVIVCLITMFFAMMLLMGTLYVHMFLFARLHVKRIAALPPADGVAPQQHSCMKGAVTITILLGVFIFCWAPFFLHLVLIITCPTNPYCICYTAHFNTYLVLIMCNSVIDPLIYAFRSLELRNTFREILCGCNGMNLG
T3 sequence (P32245 whole entry): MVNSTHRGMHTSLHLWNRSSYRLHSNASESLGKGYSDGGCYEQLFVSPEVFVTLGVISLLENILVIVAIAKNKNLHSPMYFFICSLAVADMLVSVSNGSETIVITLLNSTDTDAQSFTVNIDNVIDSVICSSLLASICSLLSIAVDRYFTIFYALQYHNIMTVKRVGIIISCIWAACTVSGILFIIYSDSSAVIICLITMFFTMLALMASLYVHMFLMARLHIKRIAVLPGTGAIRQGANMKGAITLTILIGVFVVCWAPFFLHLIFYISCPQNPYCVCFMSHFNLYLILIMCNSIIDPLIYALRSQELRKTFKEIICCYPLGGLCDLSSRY
T2 sequence (Q01726 whole entry): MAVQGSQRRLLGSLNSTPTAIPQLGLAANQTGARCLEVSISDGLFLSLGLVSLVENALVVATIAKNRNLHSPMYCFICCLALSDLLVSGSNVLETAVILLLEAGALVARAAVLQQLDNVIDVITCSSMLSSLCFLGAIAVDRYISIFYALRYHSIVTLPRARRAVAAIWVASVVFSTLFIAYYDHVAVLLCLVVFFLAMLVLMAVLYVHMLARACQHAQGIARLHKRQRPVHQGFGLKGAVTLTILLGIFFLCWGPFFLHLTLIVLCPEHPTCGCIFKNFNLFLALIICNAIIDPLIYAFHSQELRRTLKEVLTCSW

| EC50 (Melanocortin receptor 3 [1]) [nM] | Ki [2] [nM] | EC50 (Melanocortin receptor 4 [3]) [nM] | Ratio EC50 (Homo sapiens [4]) | Ratio Ki (Homo sapiens [5]) | EC50 ([6]; read-out: EC50) [nM] | EC50 ([6]; read-out: pEC50 (converted)) [nM] | Ki (Melanocortin receptor 4 [7]) [nM] | Ratio Ki (Homo sapiens [8]) | Ratio EC50 (Homo sapiens [9]) | Ki (Melanocortin receptor 3 [10]) [nM] | SMILES |
| --- | --- | --- | --- | --- | --- | --- | --- | --- | --- | --- | --- |
| 0.107 | 0.0575 | 1.12 | 12 | 347 | < 0.009 | < 0.00912 | 20 | 89 | 123 | 5.13 | CCCC[C@@H]1NC(=O)[C@@H]2CSc3nnc(c4c3CCC3C(CC4)C3COC(=O)NCCOCCOCCN)SC[C@H](NC(=O)[C@H](CCCNC(=N)N)NC(=O)[C@H](CC(=O)O)NC(=O)[C@H](Cc3c[nH]c4ccccc34)NC(=O)[C@H](CCCNC(=N)N)NC(=O)[C@H](Cc3ccccc3)NC(=O)[C@H](Cc3cnc[nH]3)NC(=O)CNC1=O)C(=O)N[C@@H](Cc1cnc[nH]1)C(=O)N[C@@H](Cc1ccccc1)C(=O)N[C@@H](CCCNC(=N)N)C(=O)N[C@@H](Cc1c[nH]c3ccccc13)C(=O)N[C@@H](CCCNC(=N)N)C(=O)N2 (some centres not stated) (cyclo(CHFRWRC[Nle]GHFRWDR); linker 1-7 via X2) |
| 2.57 | 9.77 | 11.2 | 5 | 31 | – | 0.479 | 302 | 30 | 23 | 295 | CCCC[C@@H]1NC(=O)[C@@H]2CS/C(C(=O)O)=C(/C(N)=O)SC[C@H](NC(=O)[C@H](CCCNC(=N)N)NC(=O)[C@H](CC(=O)O)NC(=O)[C@H](Cc3c[nH]c4ccccc34)NC(=O)[C@H](CCCNC(=N)N)NC(=O)[C@H](Cc3ccccc3)NC(=O)[C@H](Cc3cnc[nH]3)NC(=O)CNC1=O)C(=O)N[C@@H](Cc1cnc[nH]1)C(=O)N[C@@H](Cc1ccccc1)C(=O)N[C@@H](CCCNC(=N)N)C(=O)N[C@@H](Cc1c[nH]c3ccccc13)C(=O)N[C@@H](CCCNC(=N)N)C(=O)N2 (cyclo(CHFRWRC[Nle]GHFRWDR); linker 1-7 via X3) |
| 0.158 | 1.78 | 2.19 | 2 | 35 | – | 0.0813 | 61.7 | 9 | 27 | 16.6 | C#CCCCCN1C(=O)C2=C(SC[C@@H]3NC(=O)[C@H](CCCNC(=N)N)NC(=O)[C@H](CC(=O)O)NC(=O)[C@H](Cc4c[nH]c5ccccc45)NC(=O)[C@H](CCCNC(=N)N)NC(=O)[C@H](Cc4ccccc4)NC(=O)[C@H](Cc4cnc[nH]4)NC(=O)CNC(=O)[C@H](CCCC)NC(=O)[C@H](CS2)NC(=O)[C@H](CCCNC(=N)N)NC(=O)[C@H](Cc2c[nH]c4ccccc24)NC(=O)[C@H](CCCNC(=N)N)NC(=O)[C@H](Cc2ccccc2)NC(=O)[C@H](Cc2cnc[nH]2)NC3=O)C1=O (cyclo(CHFRWRC[Nle]GHFRWDR); linker 1-7 via X4) |
| 0.603 | 0.631 | 10.5 | 7 | 263 | – | 0.0891 | 166 | 56 | 117 | 35.5 | CCCC[C@@H]1NC(=O)[C@@H]2CSc3nnc(c4c3CCC3C(CC4)C3COC(=O)NCCOCCOCCOCCOCCC(=O)O)SC[C@H](NC(=O)[C@H](CCCNC(=N)N)NC(=O)[C@H](CC(=O)O)NC(=O)[C@H](Cc3c[nH]c4ccccc34)NC(=O)[C@H](CCCNC(=N)N)NC(=O)[C@H](Cc3ccccc3)NC(=O)[C@H](Cc3cnc[nH]3)NC(=O)CNC1=O)C(=O)N[C@@H](Cc1cnc[nH]1)C(=O)N[C@@H](Cc1ccccc1)C(=O)N[C@@H](CCCNC(=N)N)C(=O)N[C@@H](Cc1c[nH]c3ccccc13)C(=O)N[C@@H](CCCNC(=N)N)C(=O)N2 (some centres not stated) (cyclo(CHFRWRC[Nle]GHFRWDR); linker 1-7 via X5) |
| 0.955 | 2.82 | 16.6 | 4 | 93 | < 0.3 | 0.24 | 263 | 11 | 69 | 30.9 | CCCC[C@@H]1NC(=O)[C@@H]2CSc3nnc(c4c3CCC3C(CC4)C3COC(=O)NCCOCCOCCNC(=O)c3ccc4c(c3)C(=O)OC43c4ccc(O)cc4Oc4cc(O)ccc43)SC[C@H](NC(=O)[C@H](CCCNC(=N)N)NC(=O)[C@H](CC(=O)O)NC(=O)[C@H](Cc3c[nH]c4ccccc34)NC(=O)[C@H](CCCNC(=N)N)NC(=O)[C@H](Cc3ccccc3)NC(=O)[C@H](Cc3cnc[nH]3)NC(=O)CNC1=O)C(=O)N[C@@H](Cc1cnc[nH]1)C(=O)N[C@@H](Cc1ccccc1)C(=O)N[C@@H](CCCNC(=N)N)C(=O)N[C@@H](Cc1c[nH]c3ccccc13)C(=O)N[C@@H](CCCNC(=N)N)C(=O)N2 (some centres not stated) (cyclo(CHFRWRC[Nle]GHFRWDR); linker 1-7 via X6) |
| 0.302 | 1.32 | 2.88 | 2 | 34 | – | 0.141 | 44.7 | 15 | 20 | 19.5 | CCCC[C@@H]1NC(=O)[C@@H]2CSCCCSC[C@H](NC(=O)[C@H](CCCNC(=N)N)NC(=O)[C@H](CC(=O)O)NC(=O)[C@H](Cc3c[nH]c4ccccc34)NC(=O)[C@H](CCCNC(=N)N)NC(=O)[C@H](Cc3ccccc3)NC(=O)[C@H](Cc3cnc[nH]3)NC(=O)CNC1=O)C(=O)N[C@@H](Cc1cnc[nH]1)C(=O)N[C@@H](Cc1ccccc1)C(=O)N[C@@H](CCCNC(=N)N)C(=O)N[C@@H](Cc1c[nH]c3ccccc13)C(=O)N[C@@H](CCCNC(=N)N)C(=O)N2 (cyclo(CHFRWRC[Nle]GHFRWDR); linker 1-7 via X7) |
